Source: ChEMBL document CHEMBL6178017, “Intercepting the Downstream of the Estrogen Receptor Signaling Pathway: Discovery of a Potent and Efficient SRC-3 PROTAC Degrader for Overcoming Endocrine Resistance Breast Cancer” (J Med Chem, 2025)
Calls of active or inactive are those of the source. No cut-off for these calls is given here.

Tests used:
[1] = Antiproliferative activity against tamoxifen-resistant human LCC2 cells assessed as inhibition of cell growth by CCK8 assay; type: functional, cell-based
[2] = molecular target: T1, Protein cereblon/Nuclear receptor coactivator 3 (Homo sapiens, UniProt Q9Y6Q9+Q96SW2); test: PROTAC activity at CRBN/SRC-3 in tamoxifen-resistant human LCC2 cells assessed as induction of SRC-3 degradation at 1 uM incubated for 9 hrs by immunoblot analysis; type: cell-based; details: Tamoxifen-resistant LCC2 cell
Target sequence in this assay (Q96SW2 whole entry partner): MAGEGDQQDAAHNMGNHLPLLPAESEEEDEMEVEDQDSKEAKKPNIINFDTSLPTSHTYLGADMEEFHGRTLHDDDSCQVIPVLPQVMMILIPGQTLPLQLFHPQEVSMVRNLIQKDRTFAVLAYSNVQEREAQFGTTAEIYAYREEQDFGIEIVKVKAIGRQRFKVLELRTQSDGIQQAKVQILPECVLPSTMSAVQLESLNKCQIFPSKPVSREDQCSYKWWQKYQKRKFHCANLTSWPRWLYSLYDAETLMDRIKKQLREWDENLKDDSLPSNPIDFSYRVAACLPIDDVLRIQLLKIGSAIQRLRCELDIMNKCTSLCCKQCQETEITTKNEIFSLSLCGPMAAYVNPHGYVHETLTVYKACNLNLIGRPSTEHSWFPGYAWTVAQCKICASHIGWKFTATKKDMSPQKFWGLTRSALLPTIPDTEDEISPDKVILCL
Target sequence in this assay (Q9Y6Q9 2-1424 limits assumed): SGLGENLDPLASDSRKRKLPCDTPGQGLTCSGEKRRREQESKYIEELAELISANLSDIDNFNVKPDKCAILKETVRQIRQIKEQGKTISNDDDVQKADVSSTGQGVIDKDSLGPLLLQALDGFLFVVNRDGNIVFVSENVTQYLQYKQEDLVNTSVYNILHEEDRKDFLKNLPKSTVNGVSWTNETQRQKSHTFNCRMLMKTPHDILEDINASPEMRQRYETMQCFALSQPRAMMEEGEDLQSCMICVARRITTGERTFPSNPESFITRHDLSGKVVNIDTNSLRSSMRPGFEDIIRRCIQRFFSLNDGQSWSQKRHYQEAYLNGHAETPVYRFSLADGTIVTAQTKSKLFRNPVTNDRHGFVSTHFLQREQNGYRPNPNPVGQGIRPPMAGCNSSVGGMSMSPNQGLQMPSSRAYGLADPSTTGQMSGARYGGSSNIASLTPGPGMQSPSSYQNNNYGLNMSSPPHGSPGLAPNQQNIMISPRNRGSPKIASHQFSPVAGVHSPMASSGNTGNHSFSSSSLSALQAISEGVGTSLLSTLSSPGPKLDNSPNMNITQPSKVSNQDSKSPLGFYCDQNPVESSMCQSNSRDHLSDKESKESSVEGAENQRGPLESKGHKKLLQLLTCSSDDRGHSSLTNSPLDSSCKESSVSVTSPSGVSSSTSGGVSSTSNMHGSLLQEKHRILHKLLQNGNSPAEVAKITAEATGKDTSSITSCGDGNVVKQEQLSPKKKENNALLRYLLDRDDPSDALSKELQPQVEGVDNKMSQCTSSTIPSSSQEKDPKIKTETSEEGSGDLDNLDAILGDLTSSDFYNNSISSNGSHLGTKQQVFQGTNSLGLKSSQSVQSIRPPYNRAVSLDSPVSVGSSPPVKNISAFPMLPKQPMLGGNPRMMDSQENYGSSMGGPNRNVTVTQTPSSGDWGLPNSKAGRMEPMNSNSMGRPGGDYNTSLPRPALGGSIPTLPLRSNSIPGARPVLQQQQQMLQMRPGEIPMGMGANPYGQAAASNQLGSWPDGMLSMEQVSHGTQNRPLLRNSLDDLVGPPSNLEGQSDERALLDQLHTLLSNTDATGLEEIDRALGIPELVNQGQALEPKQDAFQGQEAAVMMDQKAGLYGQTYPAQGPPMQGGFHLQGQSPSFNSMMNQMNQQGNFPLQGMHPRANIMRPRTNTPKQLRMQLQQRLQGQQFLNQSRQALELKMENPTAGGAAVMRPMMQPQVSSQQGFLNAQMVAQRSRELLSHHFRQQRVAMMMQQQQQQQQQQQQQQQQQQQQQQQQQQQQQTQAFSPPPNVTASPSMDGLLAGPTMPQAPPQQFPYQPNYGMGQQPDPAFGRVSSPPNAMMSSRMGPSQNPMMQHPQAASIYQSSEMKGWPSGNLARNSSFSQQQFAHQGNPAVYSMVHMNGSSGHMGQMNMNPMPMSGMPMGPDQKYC

[3] = molecular target: T1, Protein cereblon/Nuclear receptor coactivator 3; test: PROTAC activity at CRBN/SRC-3 in tamoxifen-resistant human LCC2 cells assessed as maximal induction of SRC-3 degradation at 1 uM incubated for 36 hrs by immunoblot analysis; type: cell-based; details: Tamoxifen-resistant LCC2 cell
Target sequence in this assay (Q96SW2 whole entry partner): as the sequence (Q96SW2 whole entry partner) above
Target sequence in this assay (Q9Y6Q9 2-1424 limits assumed): as the sequence (Q9Y6Q9 2-1424 limits assumed) above

[4] = molecular target: T1, Protein cereblon/Nuclear receptor coactivator 3; test: PROTAC activity at CRBN/SRC-3 in human MCF7 cells assessed as induction of SRC-3 degradation incubated for 36 hrs by immunoblot analysis; type: cell-based
Target sequence in this assay (Q9Y6Q9 whole entry): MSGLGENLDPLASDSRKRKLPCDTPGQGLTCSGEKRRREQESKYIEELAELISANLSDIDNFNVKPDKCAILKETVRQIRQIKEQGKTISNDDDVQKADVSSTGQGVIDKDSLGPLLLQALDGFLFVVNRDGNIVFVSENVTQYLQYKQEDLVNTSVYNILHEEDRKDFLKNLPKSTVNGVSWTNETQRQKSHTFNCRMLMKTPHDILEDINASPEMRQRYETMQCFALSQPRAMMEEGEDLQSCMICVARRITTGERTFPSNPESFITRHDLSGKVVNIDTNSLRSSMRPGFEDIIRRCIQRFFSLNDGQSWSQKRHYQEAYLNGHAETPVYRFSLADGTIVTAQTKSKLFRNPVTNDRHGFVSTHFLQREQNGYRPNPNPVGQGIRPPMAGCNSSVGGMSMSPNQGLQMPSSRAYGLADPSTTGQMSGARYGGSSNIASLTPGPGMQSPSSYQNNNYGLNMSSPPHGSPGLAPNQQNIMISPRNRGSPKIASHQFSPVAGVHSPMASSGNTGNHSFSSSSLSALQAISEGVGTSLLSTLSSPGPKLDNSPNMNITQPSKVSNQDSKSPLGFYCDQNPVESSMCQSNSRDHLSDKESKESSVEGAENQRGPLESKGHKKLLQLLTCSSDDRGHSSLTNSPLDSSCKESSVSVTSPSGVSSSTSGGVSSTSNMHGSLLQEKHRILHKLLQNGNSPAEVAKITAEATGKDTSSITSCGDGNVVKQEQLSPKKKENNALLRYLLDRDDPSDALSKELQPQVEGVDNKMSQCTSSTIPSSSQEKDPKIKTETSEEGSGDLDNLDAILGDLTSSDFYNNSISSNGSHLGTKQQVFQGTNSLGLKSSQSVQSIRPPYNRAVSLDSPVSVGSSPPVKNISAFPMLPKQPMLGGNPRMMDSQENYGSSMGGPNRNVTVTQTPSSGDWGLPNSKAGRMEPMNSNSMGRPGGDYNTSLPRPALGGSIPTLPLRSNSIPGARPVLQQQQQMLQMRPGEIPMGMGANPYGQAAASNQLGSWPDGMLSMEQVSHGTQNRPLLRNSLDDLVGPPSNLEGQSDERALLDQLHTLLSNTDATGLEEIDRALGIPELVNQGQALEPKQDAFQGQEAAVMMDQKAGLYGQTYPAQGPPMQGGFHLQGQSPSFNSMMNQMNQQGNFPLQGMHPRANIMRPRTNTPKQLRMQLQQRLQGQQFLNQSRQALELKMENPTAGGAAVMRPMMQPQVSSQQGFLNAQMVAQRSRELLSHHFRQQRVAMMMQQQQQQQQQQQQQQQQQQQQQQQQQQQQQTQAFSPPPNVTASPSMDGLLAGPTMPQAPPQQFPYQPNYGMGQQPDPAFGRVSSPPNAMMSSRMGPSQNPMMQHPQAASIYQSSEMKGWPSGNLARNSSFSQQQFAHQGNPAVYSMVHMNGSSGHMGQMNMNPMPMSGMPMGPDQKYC
Target sequence in this assay (Q96SW2 whole entry): as the sequence (Q96SW2 whole entry partner) above

[5] = molecular target: T1, Protein cereblon/Nuclear receptor coactivator 3; test: PROTAC activity at CRBN/SRC-3 in human MCF-7 cells harboring D538G mutant assessed as induction of SRC-3 degradation measured after 36 hrs by immunoblot analysis; type: cell-based; details: MCF7, dose 0.01-10 µM
Target sequence in this assay (Q96SW2 whole entry partner): as above
Target sequence in this assay (Q9Y6Q9 2-1424 limits assumed): as the sequence (Q9Y6Q9 2-1424 limits assumed) above

[6] = molecular target: T1, Protein cereblon/Nuclear receptor coactivator 3; test: PROTAC activity at CRBN/SRC-3 in human MCF-7 cells harboring Y537S mutant assessed as induction of SRC-3 degradation measured after 36 hrs by immunoblot analysis; type: cell-based; details: MCF7, dose 0.01-10 µM
Target sequence in this assay (Q96SW2 whole entry partner): as the sequence (Q96SW2 whole entry partner) above
Target sequence in this assay (Q9Y6Q9 2-1424 limits assumed): as the sequence (Q9Y6Q9 2-1424 limits assumed) above

[7] = molecular target: T1, Protein cereblon/Nuclear receptor coactivator 3; test: PROTAC activity at CRBN/SRC-3 in human MCF7 cells harboring ER-alpha D538G mutant assessed as downregulation of ER-alpha level at 0.01 to 10 uM measured after 36 hrs by immunoblot analysis; type: cell-based; details: dose 0.01-10 µM
Target sequence in this assay (Q96SW2 whole entry partner): as the sequence (Q96SW2 whole entry partner) above
Target sequence in this assay (Q9Y6Q9 2-1424 limits assumed): as the sequence (Q9Y6Q9 2-1424 limits assumed) above

[8] = molecular target: T1, Protein cereblon/Nuclear receptor coactivator 3; test: PROTAC activity at CRBN/SRC-3 in human MCF7 cells harboring ER-alpha Y537S mutant assessed as downregulation of ER-alpha level at 0.01 to 10 uM measured after 36 hrs by immunoblot analysis; type: cell-based; details: dose 0.01-10 µM
Target sequence in this assay (Q96SW2 whole entry partner): as the sequence (Q96SW2 whole entry partner) above
Target sequence in this assay (Q9Y6Q9 2-1424 limits assumed): as the sequence (Q9Y6Q9 2-1424 limits assumed) above

[9] = molecular target: T1, Protein cereblon/Nuclear receptor coactivator 3; test: PROTAC activity at CRBN/SRC-3 in human MCF7 cells assessed as induction of SRC-3 degradation at 1 uM preincubated with proteasome inhibitor, MG-132 for 2 hrs followed by incubation with compound and measured after 36 hrs by immunoblot analysis; type: cell-based
[10] = molecular target: T1, Protein cereblon/Nuclear receptor coactivator 3; test: PROTAC activity at CRBN/SRC-3 in human MCF7 cells assessed as induction of SRC-3 degradation at 1 uM preincubated with autophagy inhibitor, chloroquine for 2 hrs followed by incubation with compound and measured after 36 hrs by immunoblot analysis; type: cell-based
[11] = molecular target: T1, Protein cereblon/Nuclear receptor coactivator 3; test: PROTAC activity at CRBN/SRC-3 in tamoxifen-resistant human LCC2 cells assessed as induction of SRC-3 degradation at 1 uM preincubated with SI-2 for 2 hrs followed by incubation with compound and measured after 36 hrs by immunoblot analysis; type: cell-based; details: Tamoxifen-resistant LCC2 cell
[12] = molecular target: T1, Protein cereblon/Nuclear receptor coactivator 3; test: PROTAC activity at CRBN/SRC-3 in tamoxifen-resistant human LCC2 cells assessed as induction of SRC-3 degradation at 1 uM preincubated with autophagy inhibitor, choloroquine for 2 hrs followed by incubation with compound and measured after 36 hrs by immunoblot analysis; type: cell-based; details: Tamoxifen-resistant LCC2 cell
[13] = molecular target: T1, Protein cereblon/Nuclear receptor coactivator 3; test: Binding affinity to CRBN/SRC-3 in human MCF7 cells assessed as CRBN/compound/SRC-3 ternary complex formation by measuring increase in yellow fluorescence intensity at 10 uM incubated for 6 hrs by immunofluorescence analysis; type: cell-based
MCF7 = test: Induction of apoptosis in human MCF7 cells assessed as increase in late apoptotic cells at 1 to 20 uM incubated for 48 hrs by AnnexinV-FITC/PI staining based flow cytometry; type: functional, cell-based; details: dose 1-20 µM
[14] = Induction of apoptosis in tamoxifen-resistant human LCC2 cells assessed as early apoptotic cells at 20 uM incubated for 48 hrs by AnnexinV-FITC/PI staining based flow cytometry (reference value: 5.92%); type: functional, Tamoxifen-resistant LCC2 cell
[15] = Induction of apoptosis in tamoxifen-resistant human LCC2 cells assessed as necrotic cells at 20 uM incubated for 48 hrs by AnnexinV-FITC/PI staining based flow cytometry (reference value: 1.16%); type: functional, Tamoxifen-resistant LCC2 cell
[16] = Induction of apoptosis in tamoxifen-resistant human LCC2 cells assessed as early apoptotic cells at 1 uM incubated for 48 hrs by AnnexinV-FITC/PI staining based flow cytometry (reference value: 5.92%); type: functional, Tamoxifen-resistant LCC2 cell
[17] = Induction of apoptosis in tamoxifen-resistant human LCC2 cells assessed as late apoptotic cells at 1 uM incubated for 48 hrs by AnnexinV-FITC/PI staining based flow cytometry (reference value: 4.83%); type: functional, Tamoxifen-resistant LCC2 cell
[18] = Induction of apoptosis in tamoxifen-resistant human LCC2 cells assessed as necrotic cells at 1 uM incubated for 48 hrs by AnnexinV-FITC/PI staining based flow cytometry (reference value: 1.16%); type: functional, Tamoxifen-resistant LCC2 cell
[19] = Induction of cell cycle arrest in tamoxifen-resistant human LCC2 cells assessed as accumulation of cells at G2/M phase at 20 uM incubated for 48 hrs by propidium iodide staining based flow cytometry (reference value: 11.42%); type: functional
[20] = Induction of cell cycle arrest in tamoxifen-resistant human LCC2 cells assessed as accumulation of cells at G1 phase at 5 uM incubated for 48 hrs by propidium iodide staining based flow cytometry (reference value: 78.71%); type: functional
[21] = Intrinsic clearance in human liver microsomes in presence of NADPH by LC-MS/MS analysis; type: ADME, Microsome; details: read-out: CLH
[22] = Hepatic extraction ratio in human liver microsomes in presence of NADPH by LC-MS/MS analysis; type: ADME, Microsome; details: read-out: ERH
[23] = Half life of the compound in human plasma by LC-MS/MS analysis; type: ADME, cell-free
Cytochrome P450 2C9 = Cytochrome P450 2C9 (Homo sapiens, UniProt P11712); test: Inhibition of CYP2C9 (unknown origin) using diclofenac as substrate; type: ADME
[24] = AUC(0 to infinity) in Balb/c mouse at 2 mg/kg, iv by LC-MS/MS analysis; type: ADME, organism-based; details: in vivo
[25] = Clearance in Balb/c mouse at 2 mg/kg, iv by LC-MS/MS analysis; type: ADME, organism-based; details: in vivo
[26] = Cmax in Balb/c mouse at 4 mg/kg, ip by LC-MS/MS analysis; type: ADME, organism-based; details: in vivo
[27] = Bioavailability in Balb/c mouse at 4 mg/kg, ip by LC-MS/MS analysis; type: ADME, organism-based; details: in vivo
[28] = Half life in Balb/c mouse at 20 mg/kg, po by LC-MS/MS analysis; type: ADME, organism-based; details: in vivo
[29] = AUC (0 to t) in Balb/c mouse at 20 mg/kg, po by LC-MS/MS analysis; type: ADME, organism-based; details: in vivo
[30] = Toxicity against Balb/c mouse xenografted with tamoxifen-resistant human LCC2 cells assessed as effect on liver pathological changes at 3 to 5 uM/Kg, ip administered once every 2 days for 23 days and measured on day 25 by Hematoxylin-Eosin based […] staining analysis; type: organism-based; details: in vivo, 600 h, dose 3-5 µM/Kg, time 25 day
[31] = Toxicity against Balb/c mouse xenografted with tamoxifen-resistant human LCC2 cells assessed as effect on lung pathological changes at 3 to 5 uM/Kg, ip administered once every 2 days for 23 days and measured on day 25 by Hematoxylin-Eosin based […] staining analysis; type: organism-based; details: in vivo, 600 h, dose 3-5 µM/Kg, time 25 day
[32] = molecular target: Voltage-gated inwardly rectifying potassium channel KCNH2 (Homo sapiens, UniProt Q12809)

Chain of Cytochrome P450 2C9 (P11712 whole entry): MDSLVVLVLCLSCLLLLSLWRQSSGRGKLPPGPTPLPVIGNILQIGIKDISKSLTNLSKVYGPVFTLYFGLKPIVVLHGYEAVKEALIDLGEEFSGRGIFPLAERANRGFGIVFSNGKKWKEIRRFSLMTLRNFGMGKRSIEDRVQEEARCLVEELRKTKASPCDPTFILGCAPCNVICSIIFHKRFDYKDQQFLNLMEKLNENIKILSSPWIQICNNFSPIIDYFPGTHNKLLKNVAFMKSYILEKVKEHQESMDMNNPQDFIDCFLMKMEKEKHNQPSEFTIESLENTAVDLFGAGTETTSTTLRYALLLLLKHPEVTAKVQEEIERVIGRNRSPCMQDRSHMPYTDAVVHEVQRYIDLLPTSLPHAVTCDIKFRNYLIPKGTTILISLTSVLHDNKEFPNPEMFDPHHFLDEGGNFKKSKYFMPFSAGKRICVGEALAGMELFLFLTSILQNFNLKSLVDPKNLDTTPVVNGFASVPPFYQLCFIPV

For `C/C(=N\Nc1nc2ccccc2n1C1CN(C2CCN(c3cccc4c3C(=O)N(C3CCC(=O)NC3=O)C4=O)CC2)C1)c1ccccn1` (centres undefined), the IC50 [1] was 350 nM, the Activity [2] was “Active” and the Activity [3] was “Active”. For the same compound, the DC50 [4] was 31 nM, the Activity [5] was “Dose-dependent-effect” and the Activity [6] was “Dose-dependent-effect”. The Activity [7] was “Active”, the Activity [8] was “Active” and the Activity [9] was “inactive”. For the same compound, the Activity [10] was “Active”, the Activity [11] was “Active” and the Activity [12] was “Active”. For the same compound, the Activity [13] was “Active”, the Activity (MCF7) was “Active” and the Activity [14] was 31.96%. It also gave an Activity [15] of 10.9%, an Activity [16] of 17.04% and an Activity [17] of 21.9%. For the same compound, the Activity [18] was 9.63%, the Activity [19] was 3.71% and the Activity [20] was 81.41%. The CLint scaled [21] was 190 mL/min/kg, the hepatic extraction ratio [22] was 0.902 and the half-life [23] was 35.6 h. It also gave an IC50 (Cytochrome P450 2C9) of over 10000 nM, an AUC(0-inf) [24] of 367 ng·h/mL and a clearance [25] of 96.8 mL/min/kg. The Cmax [26] was 31.2 ng/mL, the bioavailability [27] was 8% and the half-life [28] was 4.49 h. The AUC(0-t) [29] was 47.1 ng·h/mL, the Activity [30] was “Non-toxic” and the Activity [31] was “Non-toxic”. It also gave an IC50 [32] of 1100 nM.
